The target of one assay is T1, human α4β7 integrin (Homo sapiens, UniProt P13612+P26010).
T1 construct: expressed in transfected cells; host or cells: K562 cells, stably transfected
T1 sequence (P13612 34-1032): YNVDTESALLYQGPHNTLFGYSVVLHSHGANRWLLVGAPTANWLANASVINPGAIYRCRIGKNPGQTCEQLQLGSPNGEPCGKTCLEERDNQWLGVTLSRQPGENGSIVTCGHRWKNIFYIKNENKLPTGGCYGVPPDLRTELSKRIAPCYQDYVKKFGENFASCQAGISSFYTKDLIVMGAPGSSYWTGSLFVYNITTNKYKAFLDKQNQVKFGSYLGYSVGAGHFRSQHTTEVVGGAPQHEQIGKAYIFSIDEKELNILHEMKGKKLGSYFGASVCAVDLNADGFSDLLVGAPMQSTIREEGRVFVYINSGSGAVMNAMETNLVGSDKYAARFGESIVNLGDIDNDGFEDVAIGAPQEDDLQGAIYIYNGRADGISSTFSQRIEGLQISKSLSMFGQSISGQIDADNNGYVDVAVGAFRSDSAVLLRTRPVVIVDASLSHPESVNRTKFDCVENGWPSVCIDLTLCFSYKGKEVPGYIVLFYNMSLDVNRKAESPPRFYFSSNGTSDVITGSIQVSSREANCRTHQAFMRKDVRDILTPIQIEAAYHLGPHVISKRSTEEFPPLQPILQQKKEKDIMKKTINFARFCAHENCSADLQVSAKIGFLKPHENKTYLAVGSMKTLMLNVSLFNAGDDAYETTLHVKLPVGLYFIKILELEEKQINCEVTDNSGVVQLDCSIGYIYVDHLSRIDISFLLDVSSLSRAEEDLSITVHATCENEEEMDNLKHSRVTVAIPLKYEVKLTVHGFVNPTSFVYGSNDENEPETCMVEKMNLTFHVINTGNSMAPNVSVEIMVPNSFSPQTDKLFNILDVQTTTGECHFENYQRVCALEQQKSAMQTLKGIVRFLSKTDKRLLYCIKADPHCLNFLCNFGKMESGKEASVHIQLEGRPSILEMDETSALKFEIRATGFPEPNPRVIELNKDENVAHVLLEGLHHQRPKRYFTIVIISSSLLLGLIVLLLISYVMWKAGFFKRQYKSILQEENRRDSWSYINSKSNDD
T1 sequence (P26010 20-798): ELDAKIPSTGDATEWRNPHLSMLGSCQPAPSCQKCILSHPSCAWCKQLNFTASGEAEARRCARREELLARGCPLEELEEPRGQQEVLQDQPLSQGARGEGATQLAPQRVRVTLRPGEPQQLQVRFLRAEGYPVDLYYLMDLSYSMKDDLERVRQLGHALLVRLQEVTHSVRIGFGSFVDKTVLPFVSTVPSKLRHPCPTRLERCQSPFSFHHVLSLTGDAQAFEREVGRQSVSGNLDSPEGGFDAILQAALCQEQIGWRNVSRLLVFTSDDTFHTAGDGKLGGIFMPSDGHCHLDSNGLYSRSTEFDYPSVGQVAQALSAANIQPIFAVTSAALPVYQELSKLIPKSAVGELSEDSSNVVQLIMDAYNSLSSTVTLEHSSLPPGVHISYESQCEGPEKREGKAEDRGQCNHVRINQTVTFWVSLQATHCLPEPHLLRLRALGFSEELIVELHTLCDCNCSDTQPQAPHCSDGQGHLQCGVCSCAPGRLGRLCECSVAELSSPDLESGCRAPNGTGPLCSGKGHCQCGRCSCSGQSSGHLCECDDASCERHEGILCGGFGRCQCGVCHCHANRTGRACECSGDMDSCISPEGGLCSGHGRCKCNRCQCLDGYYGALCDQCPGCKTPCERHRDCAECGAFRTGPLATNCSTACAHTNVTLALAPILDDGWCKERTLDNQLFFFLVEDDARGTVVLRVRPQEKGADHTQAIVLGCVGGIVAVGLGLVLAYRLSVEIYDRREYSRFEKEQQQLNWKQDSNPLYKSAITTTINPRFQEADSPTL
Kind of assay: α4β7-K562 Cell Adhesion Assay (α4β7 Mediated Adhesion/MAdCAM-1). To be noted: α4β7-K562 cell adhesion to hMAdCAM-1; read-out: α4β7 IC50. The class given is cell-based. Here is the method: α4β7-K562 Cell Adhesion Assay (α4β7 Mediated Adhesion/MAdCAM-1)
M2 anti-FLAG Antibody Coated 96-well plates (Sigma) were coated for 1 hour at 4° C. with 2-8 μl/well recombinant FLAG-hMAdCAM-1 contained in 100 μL of Dulbecco's PBS, pH 7.4, with 1% BSA and 1 mM Mn ^+2 (PBS-BSA-Mn). Plates were washed once with PBS-BSA-Mn. Buffer was removed and compounds to be tested (50 μL) were added at 2× concentration. Stably transfected K562 cells expressing human α4β7 integrin, (50 μL at 2×10^6/mL) that had been labeled with 100 μg/ml carboxymethyl fluorescein diacetate succinimidyl ester (CFDA-SE; Molecular Probes) for 15 min at 37° C. were added to each well and allowed to adhere for 1 h at room temperature. Plates were washed 4× in PBS-BSA-Mn and then cells were lysed for 2 minutes by addtion of 100 μL of PBS without Ca, Mg supplemented with 0.1 M NaOH.

A further assay concerns the target T2, α4β1 (Homo sapiens, UniProt P05556+P13612).
T2 construct: Ramos Cell Adhesion Assay (α4β1 Mediated Adhesion/VCAM-1); endogenous in cells; host or cells: Ramos cells
As to the kind of experiment: Ramos Cell Adhesion Assay (α4β1 Mediated Adhesion/VCAM-1). The class given is cell-based. To be noted: Ramos cell adhesion to hVCAM-1; read-out: α4β1 IC50. The method, then:
Ramos Cell Adhesion Assay (α4β1 Mediated Adhesion/VCAM-1)
Immulon 96 well plates (Dynex) were coated with 100 μL recombinant hVCAM-1 at 4.0 μg/mL in 0.05 M NaCO3 buffer pH 9.0 overnight at 4° C. (R&D Systems). Plates were washed 2 times in PBS with 1% BSA and blocked for 1 h @ room temperature in this buffer. PBS was removed and compounds to be tested (50 μL) were added at 2× concentration. Ramos cells, (50 μL at 2×10^6/mL) labeled with 5 μM Calcein AM (Molecular Probes) for 1 h at 37° C., were added to each well and allowed to adhere for 1 h at room temperature. Plates were washed 4× in PBS+1% BSA and cells were lysed for 15 minutes in 100 μL of 1 M Tris pH 8.0 with 1% SDS.

Structures are written as SMILES.

In patent US20050192279A1, “Pyridazinones as antagonists of alpha4 integrins” (priority 2004, published 2005) one finds IC50 data, which are given here for 23 compounds.

T2 sequence (P05556 21-798, one chain of several): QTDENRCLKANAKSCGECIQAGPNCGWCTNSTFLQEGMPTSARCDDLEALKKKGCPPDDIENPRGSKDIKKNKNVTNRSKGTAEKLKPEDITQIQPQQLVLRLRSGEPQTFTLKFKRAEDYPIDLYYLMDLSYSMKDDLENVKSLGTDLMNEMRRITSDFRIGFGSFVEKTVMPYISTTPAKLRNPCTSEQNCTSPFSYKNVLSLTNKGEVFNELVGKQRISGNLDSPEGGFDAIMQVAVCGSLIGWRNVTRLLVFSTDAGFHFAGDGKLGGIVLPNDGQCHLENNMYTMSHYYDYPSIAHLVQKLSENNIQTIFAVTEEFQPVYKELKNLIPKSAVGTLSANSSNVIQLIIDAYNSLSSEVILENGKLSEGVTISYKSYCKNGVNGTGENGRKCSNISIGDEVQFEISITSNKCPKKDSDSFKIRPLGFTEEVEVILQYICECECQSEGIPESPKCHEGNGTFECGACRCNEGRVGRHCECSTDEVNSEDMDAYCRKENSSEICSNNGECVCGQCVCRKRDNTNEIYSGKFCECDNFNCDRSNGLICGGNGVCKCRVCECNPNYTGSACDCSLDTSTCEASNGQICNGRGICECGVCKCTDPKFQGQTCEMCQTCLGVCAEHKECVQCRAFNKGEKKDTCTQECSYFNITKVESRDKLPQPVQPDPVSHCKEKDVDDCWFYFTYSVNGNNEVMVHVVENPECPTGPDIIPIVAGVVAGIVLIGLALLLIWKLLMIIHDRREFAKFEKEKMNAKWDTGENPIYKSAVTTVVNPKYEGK

What is called IC50 is the point on the concentration scale where inhibition reaches its midpoint. In the case of `COc1cnn(C)c(=O)c1-c1ccc(C[C@H](NC(=O)c2ccc[nH]2)C(=O)O)cc1` [Cpd 84], the IC50 on human α4β7 integrin is 41 nM; at α4β1, more than 5000 nM.
`COc1cnn(C(C)(C)C)c(=O)c1-c1ccc(C[C@H](NC(=O)c2c(Cl)cccc2Cl)C(=O)O)cc1` [Cpd 85]: the values for the IC50 on human α4β7 integrin and on α4β1 were 42 nM and 794 nM, respectively.
On to `Cn1ncc(OCC2CC2)c(-c2ccc(C[C@H](NC(=O)c3c(Cl)cccc3Cl)C(=O)O)cc2)c1=O` [Cpd 86, (S)-3-[4-(5-Cyclopropylmethoxy-2-methyl-3-oxo-2,3-dihydro-pyridazin-4-yl)-phenyl]-2-(2,6-dichloro-benzoylamino)-propionic acid], for which the IC50 at human α4β7 integrin was determined as 44 nM; at α4β1, 212 nM.
As to `COc1cnn(C)c(=O)c1-c1ccc(CC(NC(=O)C(C(C)C)n2cccc2)C(=O)O)cc1` (stereo not shown) [Cpd 87, 3-[4-(5-Methoxy-2-methyl-3-oxo-2,3-dihydro-pyridazin-4-yl)-phenyl]-2-(3-methyl-2-pyrrol-1-yl-butyrylamino)-propionic acid], the IC50 at human α4β7 integrin amounted to 44 nM; at α4β1, 278 nM.
Turning to `O=C(N[C@@H](Cc1ccc(-c2c(-n3ncc4ccccc43)cnn(CCO)c2=O)cc1)C(=O)O)c1c(Cl)cccc1Cl` [Cpd 88], the results for the IC50 on human α4β7 integrin and on α4β1 were 46 nM and 1040 nM, respectively.
For `COc1cnn(C)c(=O)c1-c1ccc(C[C@H](NC(=O)[C@@H](C(C)C)N(C)C(=O)CCc2ccccc2)C(=O)O)cc1` [Cpd 90], in that order: 48 nM and 4500 nM.
As for `COCCOCCOC(=O)[C@H](Cc1ccc(-c2c(OC)cnn(C)c2=O)cc1)NC(=O)c1c(Cl)cccc1Cl` [Cpd 91], the IC50 at human α4β7 integrin was 49 nM; at α4β1, 2380 nM.
Consider `CC(C)(C)C(=O)Cn1ncc(NC2CC2)c(-c2ccc(C[C@H](NC(=O)c3c(Cl)cccc3Cl)C(=O)O)cc2)c1=O` [Cpd 92], for which the results for the IC50 at human α4β7 integrin and on α4β1 were 52 nM and more than 5000 nM, respectively.
For `O=C(N[C@@H](Cc1ccc(-c2c(Cl)cnn(CC3CC3)c2=O)cc1)C(=O)O)c1c(Cl)cccc1Cl` [Cpd 93, (S)-3-[4-(5-Chloro-2-cyclopropylmethyl-3-oxo-2,3-dihydro-pyridazin-4-yl)-phenyl]-2-(2,6-dichloro-benzoylamino)-propionic acid], in that order: 52 nM and more than 5000 nM.
Take `O=C(N[C@@H](Cc1ccc(-c2c(-n3cc(Br)cn3)cnn(CCO)c2=O)cc1)C(=O)O)c1c(Cl)cccc1Cl` [Cpd 94]: the results for the 50% inhibitory concentration (IC50) at human α4β7 integrin and at α4β1 were 53 nM and 1320 nM, respectively.
`Cn1ncc(O)c(-c2ccc(C[C@H](NC(=O)c3c(Cl)cccc3Cl)C(=O)O)cc2)c1=O` [Cpd 95, (S)-2-(2,6-Dichloro-benzoylamino)-3-[4-(5-hydroxy-2-methyl-3-oxo-2,3-dihydro-pyridazin-4-yl)-phenyl]-propionic acid]: the values for the IC50 on human α4β7 integrin and at α4β1 were 53.5 nM and 480 nM, respectively.
For `COc1cnn(C)c(=O)c1-c1ccc(C[C@H](NC(=O)CN(C)C(=O)OCc2ccccc2)C(=O)O)cc1` [Cpd 96], in that order: 56 nM and 1790 nM.
With `COc1cnn(C)c(=O)c1-c1ccc(CC(NC(=O)c2c(Cl)cccc2Cl)C(=O)OCCO)cc1` (stereo not shown) [Cpd 97, 2-(2,6-Dichloro-benzoylamino)-3-[4-(5-methoxy-2-methyl-3-oxo-2,3-dihydro-pyridazin-4-yl)-phenyl]-propionic acid 2-hydroxy-ethyl ester], the half-inhibitory concentration (IC50) on human α4β7 integrin amounted to 58 nM; on α4β1, 3240 nM.
Consider `COc1cnn(C)c(=O)c1-c1ccc(C[C@H](NC(=O)C2(NC3CCCCC3)CCOCC2)C(=O)O)cc1` [Cpd 98], for which the results for the IC50 at human α4β7 integrin and on α4β1 were 248 nM and 3840 nM, respectively.
On to `COc1cnn(C)c(=O)c1-c1ccc(C[C@H](NC(=O)C23CCC(CC2)CN3)C(=O)O)cc1` [Cpd 99], for which the IC50 came out at 60 nM at human α4β7 integrin and 264 nM at α4β1.
Turning to `COc1cnn(C)c(=O)c1-c1ccc(C[C@H](NC(=O)[C@@H]2C3CCC(CC3)N2C(=O)CCC(C)C)C(=O)O)cc1` [Cpd 100], the IC50 is 60 nM on human α4β7 integrin and 272 nM at α4β1.
Regarding `COc1cnn(C)c(=O)c1-c1ccc(C[C@H](NC(=O)[C@@H]2C3CCC(CC3)N2C(=O)OCc2ccccc2)C(=O)O)cc1` [Cpd 103], the IC50 at human α4β7 integrin was 67 nM; on α4β1, 629 nM.
For the compound `COc1cnn(C)c(=O)c1-c1ccc(CC(NC(=O)C(NC(=O)Cc2ccsc2)C(C)C)C(=O)O)cc1` (stereo not shown) [Cpd 107, 3-[4-(5-Methoxy-2-methyl-3-oxo-2,3-dihydro-pyridazin-4-yl)-phenyl]-2-[3-methyl-2-(2-thiophen-3-yl-acetylamino)-butyrylamino]-propionic acid], the IC50 at human α4β7 integrin is 71 nM; on α4β1, 306 nM.
For `COc1cnn(C)c(=O)c1-c1ccc(C[C@H](NC(=O)[C@@H]2C3CCC(CC3)N2S(=O)(=O)c2ccccc2)C(=O)O)cc1` [Cpd 108], in that order: 72 nM and 2.7 nM.
For `CC(C)COC(=O)N[C@@H](Cc1ccc(-c2c(OCC(C)C)cnn(C)c2=O)cc1)C(=O)O` [Cpd 111], in that order: 82 nM and more than 5000 nM.
The matching figures for `Cn1ncc(OC(F)F)c(-c2ccc(C[C@H](NC(=O)c3c(Cl)cccc3Cl)C(=O)O)cc2)c1=O` [Cpd 112, (S)-2-(2,6-Dichloro-benzoylamino)-3-[4-(5-difluoromethoxy-2-methyl-3-oxo-2,3-dihydro-pyridazin-4-yl)-phenyl]-propionic acid]: 85 nM and 289 nM.
As for `COc1cnn(C)c(=O)c1-c1ccc(C[C@H](NC(=O)[C@@H]2C3CCC(CC3)N2C(=O)Cc2ccsc2)C(=O)O)cc1` [Cpd 113], the IC50 is 88 nM at human α4β7 integrin and 44 nM on α4β1.
As to `COc1cnn(C)c(=O)c1-c1ccc(C[C@H]2C(=O)OCN2C(=O)c2c(Cl)cccc2Cl)cc1` [Cpd 114, (S)-4-{4-[3-(2,6-Dichloro-benzoyl)-5-oxo-oxazolidin-4-ylmethyl]-phenyl}-5-methoxy-2-methyl-2H-pyridazin-3-one], the 50% inhibitory concentration (IC50) at human α4β7 integrin is 93 nM; at α4β1, more than 5000 nM.
